Assay results reported in article PMC9057948, “Identification, isolation, structural characterization, in silico toxicity prediction and in vitro cytotoxicity assay of simeprevir acidic and oxidative degradation products” (RSC Advances, 2020).
Like-named read-outs stand apart in the source and are kept apart here.

Assays:
[1] = system: Human Skin Fibroblast (HSF) cell line; test: SRB cytotoxicity (cell viability) assay; format: cell-based; conditions: Homo sapiens; HSF cells, SRB assay, 72 h exposure, 0.01–100 μM
Method: (§1) Human Skin Fibroblast cell line was obtained from Nawah Scientific Inc., (Mokatam, Cairo, Egypt). Cells were maintained in DMEM media supplemented with […] of streptomycin, 100 units per mL of penicillin and 10% of heat-inactivated fetal bovine serum in humidified, 5% (v/v) CO2 atmosphere at 37 °C.
(§2) Absorbance was measured in the cytotoxicity assay at 540 nm on a BMG LABTECH®-FLUOstar Omega microplate reader (Ortenberg, Germany).
(§3) Cell viability was assessed by SRB assay.[25] Aliquots of 100 μL cell suspension (5 × 10^3 cells) were in 96-well plates and incubated in complete media for 24 h. Cells were treated with another aliquot of 100 μL media containing (DP 1, DP 2, DP 3, DP 4, DP 5 and Doxorubicin as positive control) at various concentrations ranging from (0.01, 0.1, 1, 10, 100 μm). After 72 h of drug exposure, cells were fixed by replacing media with 150 μL of 10% TCA and incubated at 4 °C for 1 h. The TCA solution was removed, and the cells were washed 5 times with distilled water. Aliquots of 70 μL SRB solution (0.4% w/v) were added and incubated in a dark place at room temperature for 10 min. Plates were washed 3 times with 1% acetic acid and allowed to air-dry overnight. Then, 150 μL of Tris (10 mM) was added to dissolve protein-bound SRB stain; the absorbance was measured at 540 nm using microplate reader. The percentage of cell viability was calculated by using the following formula:[26] [drawing 1]
(§4) Cytotoxicity assay was carried out to confirm the in silico toxicity prediction study results. As an in vitro method to monitor the potential toxicity and/or safety of simeprevir and its degradation products (DP 1, DP 2, DP 3, DP 4 and DP 5), against Human Skin Fibroblast (HSF) cell line. SRB assay was used to assess the effect of these compounds on the viability and proliferation of HSF cell line (Table S1 ^†), in addition to taking images using the optical microscope to register any change on the tested cells.
(§5) The percentage of cell viability was measured at five different concentrations (0.01, 0.1, 1, 10 and 100 μM) in comparison with doxorubicin as a standard drug (positive control) which is monitored at the same concentration range after incubation for 72 h period.

[2] = SRB cytotoxicity (cell viability) assay; format: cell-based, Human; conditions: human, Human Skin Fibroblast (HSF) cells; for viability at 72 h, 0.01 µM / viability at 72 h, 0.1 µM / viability at 72 h, 1 µM / viability at 72 h, 10 µM: n = 3
Method: as §1, §2, §3, §4, §5

[3] = system: Human Skin Fibroblast (HSF) cell line; test: Optical microscope stained images of the cytotoxicity assay; format: cell-based; conditions: HSF cells, magnification 200×
Method: as §4
The optical microscope stained images were recorded as shown in Fig. 7 comparing the cytotoxic effect of the five degradation products with that of doxorubicin at a concentration of 100 μM. […] This proves that simeprevir acidic and oxidative degradation products are non-toxic up to 100 μM (IC50 > 100 μM).

[4] = no reference given; cited from earlier work
[5] = Forced degradation study (stress degradation, HPLC); format: physicochemical
Method: The forced degradation studies were carried out on 1 mg mL^−1 in methanol. Acidic hydrolysis was performed by treating the drug with 0.5 M hydrochloric acid for 5 hours, while the basic hydrolysis conditions were 1 M sodium hydroxide for 5 hours. In both cases, the reaction was immersed in a boiling water bath maintained at 100 °C.
Oxidative degradation was performed by treating the drug with 3% hydrogen peroxide for 5 hours and the reaction was immersed in a boiling water bath maintained at 100 °C. In the thermal degradation, simeprevir was subjected to high temperature by placing the drug in a thermostatic oven at 100 °C.
The samples from the acidic and basic hydrolysis stress tests were neutralized and diluted with methanol to achieve final assay concentrations of 100 μg mL^−1. The final sample solutions were filtered through a 0.45 μm membrane before HPLC analysis. All sample solutions were stored at 4 °C in a refrigerator to avoid degradation.
Although, previous reports by Attia et al.[18] and Mohammed et al.[27] uses different basic hydrolysis conditions; 0.1 N NaOH for 3 hours at room temperature and 1 M NaOH for 2 hours at 60 °C; respectively. […] In our report, no peak was observed after HPLC injection of the alkaline degradation samples which is confirmed using TLC and Flash Chromatography; in which only drug peak was detected.

[6] = cited from earlier work
[7] = 72 h, n = 3, read-out: Viability % (Mean)

Structure (SMILES)	IC50 [1] [µM]	viability at 72 h, 0.01 µM ([2]; 72 h) [%]	viability at 72 h, 0.1 µM ([2]; 72 h) [%]	viability at 72 h, 1 µM ([2]; 72 h) [%]	viability at 72 h, 10 µM ([2]; 72 h) [%]	viability at 72 h, 100 µM [2, 7] [%]	viability at 72 h, 100 µM ([2]; single replicate, read-out: cell viability in one of the replicates) [%]	morphological changes ([3]; 100 μM)	pKa [4]	% Degradation, acidic degradation ([5]; 0.5 M HCl at 100 °C, 5 hours) [%]	% Degradation, alkaline degradation ([5]; 1 M NaOH at 100 °C, 5 hours)	% Degradation, oxidative degradation ([5]; 3% w/v H2O2 at 100 °C, 5 hours) [%]	% Degradation, thermal degradation ([5]; Oven at 100 °C, 10 hours)	degradation percentage, basic hydrolysis ([6]; 0.1 N NaOH for 3 hours at room temperature, ref 18 (Attia et al.)) [%]	degradation percentage, basic hydrolysis ([6]; 1 M NaOH for 2 hours at 60 °C, ref 27 (Mohammed et al.)) [%]	morphological changes ([3]; 0.1 μM)
COc1ccc2c(OC3CC4C(=O)NC5CC5C=CCCCCN(C)C(=O)C4C3)cc(-c3nc(C(C)C)cs3)nc2c1C (stereo not shown) [DP 2]	> 100	98.5	98.5	97.4	97.1	95.6										
COc1ccc2ccc(-c3scc(C(C)C)[n+]3[O-])[n+]([O-])c2c1CO [DP 4]	> 100	96.1	93.9	93.1	92.1	92.7										
CN1CCCCC=CC2CC2(C(=O)NS(=O)(=O)C2CC2)NC(=O)C2CC(O)CC2C1=O (stereo not shown) [DP 3]	> 100	97.7	97.6	93.4	91.1	90.9	89.9	slight changes								
COc1ccc2ccc(-c3scc(C(C)C)[n+]3[O-])[n+]([O-])c2c1C [DP 5]	> 100	96.3	96.8	93.7	93	92.5										
COc1ccc2c(OC3C[C@H]4C(=O)OC(=O)[C@@H]4C3)cc(-c3nc(C(C)C)cs3)nc2c1C [DP 1]	> 100	98.7	96.5	95.6	95.2	92.9										
COc1ccc2c(O[C@@H]3C[C@H]4C(=O)N[C@]5(C(=O)NS(=O)(=O)C6CC6)C[C@H]5/C=C\CCCCN(C)C(=O)[C@@H]4C3)cc(-c3nc(C(C)C)cs3)nc2c1C [Simeprevir]									5.9	26.63	No degradation	21.87	No degradation	35.55	39.80	
COc1cccc2c1C(=O)c1c(O)c3c(c(O)c1C2=O)C[C@@](O)(C(=O)CO)C[C@@H]3O[C@H]1C[C@H](N)[C@H](O)[C@H](C)O1 [Doxorubicin, reference compound]	1.4	99.5	98.4	59.9	15.5	3.29										no occurrence of morphological changes
